Measurements taken from patent publication US20260207618A1, “PYRIMIDINE CARBOXAMIDE COMPOUNDS” (Acrivon Therapeutics, Inc., priority 2022, published 2026).

How the values were obtained:
[1] = target: T1, recombinant human Wee1A kinase (Homo sapiens, UniProt P30291); assay: LanthaScreen Europium (Eu) Kinase Binding Assay, Wee1A kinase (TR-FRET tracer displacement); conditions: 30 nM tracer 178, 5 nM Wee1A kinase, 60 minutes at room temperature
T1 construct: full length Wee1A kinase was expressed by baculovirus in insect cells; purchased Invitrogen PV3817; host or cells: insect cells (baculovirus)

[2] = system: Cdk1 phosphorylated on tyrosine 15; assay: High-content imaging of pCdk1 Y15 by immunofluorescence in ACHN cells; assay type: cell-based; conditions: Homo sapiens, high-content imaging (IF), 4 h, 7 to 5000 nM, read-out: CDK1 Tyr15 Phosphorylation EC50 (IC50)
In short: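 ACHN cells were treated with compounds at 7–5000 nM for 4 h, then fixed, permeabilised and immunostained for pCDK1 Y15, with DAPI as nuclear counterstain. Automated imaging gave the percentage of cells with nuclear pCDK1 Y15 positivity relative to DMSO control. EC50 values came from dose-response curves.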

ACHN cells = assay: Cell Titer Glo viability assay in ACHN cells; assay type: cell-based; conditions: Homo sapiens, 144 h, 0.17 to 10,000 nM
Method: ACHN renal cell carcinoma cell line (ATCC) was cultured in Minimum Essential Medium Eagle supplemented with 10% fetal calf serum (Sigma), 1% Penicillin-Streptomycin and 10 mM HEPES buffer (HyClone). Cell cultures were kept in a humidified incubator at 37° C. and 5% CO2. Cells were routinely tested for Mycoplasma contamination.
ACHN cells were seeded at a density of 400 cells per well in tissue culture treated 384 well plates (Corning Costar). After overnight incubation, cells were treated with drugs at concentrations ranging from 0.17 to 10,000 nM. Viability compared to untreated control was assessed at 144 h using Cell Titer Glo assay 2.0 (Promega).

T1 sequence (P30291 whole entry): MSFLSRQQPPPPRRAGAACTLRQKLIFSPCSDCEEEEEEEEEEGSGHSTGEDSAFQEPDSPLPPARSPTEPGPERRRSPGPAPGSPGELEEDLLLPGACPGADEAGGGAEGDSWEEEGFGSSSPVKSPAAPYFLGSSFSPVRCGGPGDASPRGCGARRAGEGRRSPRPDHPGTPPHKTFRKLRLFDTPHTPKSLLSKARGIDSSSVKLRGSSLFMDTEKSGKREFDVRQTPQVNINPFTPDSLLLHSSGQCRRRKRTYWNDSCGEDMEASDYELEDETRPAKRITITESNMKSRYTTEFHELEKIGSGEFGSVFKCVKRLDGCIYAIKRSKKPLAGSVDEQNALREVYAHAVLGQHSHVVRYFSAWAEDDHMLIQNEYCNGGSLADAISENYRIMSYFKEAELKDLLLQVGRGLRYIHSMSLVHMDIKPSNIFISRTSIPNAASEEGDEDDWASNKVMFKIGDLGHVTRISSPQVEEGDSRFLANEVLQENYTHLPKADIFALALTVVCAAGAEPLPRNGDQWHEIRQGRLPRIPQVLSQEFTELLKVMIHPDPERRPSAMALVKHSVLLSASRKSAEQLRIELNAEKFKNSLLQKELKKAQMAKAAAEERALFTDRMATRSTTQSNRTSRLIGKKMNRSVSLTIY

Structure (SMILES) | IC50 [1] [µM] | EC50 [2] [µM] | EC50 (ACHN cells) [µM]
COc1nc(Nc2ccc([C@H]3CCNC3)c(C)c2)ncc1C(=O)Nc1c(Cl)cccc1Br (single isomer, unassigned) [Compound 194] | ≤ 0.01 | 0.1 to 0.5 | 0.25 to 1
COc1nc(Nc2ccc([C@@H]3CCNC3)c(C)c2)ncc1C(=O)Nc1c(Cl)cccc1Br (single isomer, unassigned) [Compound 195] | ≤ 0.01 | 0.1 to 0.5 | 0.25 to 1
COc1nc(Nc2ccc([C@@H]3CCCN(C)C3)c(C)c2)ncc1C(=O)Nc1c(Cl)cccc1Br (single isomer, unassigned) [Compound 197] | ≤ 0.01 | 0.1 to 0.5 | ≤ 0.25
COc1nc(Nc2ccc(C3CCN(C)CC3)c(C)c2)ncc1C(=O)Nc1c(Cl)cccc1Cl [Compound 100, N-(2,6-dichlorophenyl)-4-methoxy-2-((3-methyl-4-(1-methylpiperidin-4-yl)phenyl)amino)pyrimidine-5-carboxamide] | ≤ 0.01 | ≤ 0.1 | 0.25 to 1
COc1nc(Nc2ccc(C3CCN(C)CC3)c(C)c2)ncc1C(=O)Nc1c(Cl)cccc1Br [Compound 110, N-(2-bromo-6-chlorophenyl)-4-methoxy-2-((3-methyl-4-(1-methylpiperidin-4-yl)phenyl)amino)pyrimidine-5-carboxamide] | ≤ 0.01 | ≤ 0.1 | ≤ 0.25
COc1nc(Nc2ccc3c(c2)CN(C)CC3)ncc1C(=O)Nc1c(Cl)cccc1Cl [Compound 116, N-(2,6-dichlorophenyl)-4-methoxy-2-((2-methyl-1,2,3,4-tetrahydroisoquinolin-7-yl)amino)pyrimidine-5-carboxamide] | ≤ 0.01 | ≤ 0.1 | 0.25 to 1
COc1nc(Nc2ccc(C3CCN(C)CC3)c(C)c2)ncc1C(=O)Nc1c(Cl)cccc1C(F)(F)F [Compound 122, N-(2-chloro-6-(trifluoromethyl)phenyl)-4-methoxy-2-((3-methyl-4-(1-methylpiperidin-4-yl)phenyl)amino)pyrimidine-5-carboxamide] | ≤ 0.01 | 0.1 to 0.5 | 0.25 to 1
C#Cc1cccc(Cl)c1NC(=O)c1cnc(Nc2ccc(C3CCN(C)CC3)c(C)c2)nc1OC [Compound 129, N-(2-chloro-6-ethynylphenyl)-4-methoxy-2-((3-methyl-4-(1-methylpiperidin-4-yl)phenyl)amino)pyrimidine-5-carboxamide] | ≤ 0.01 | ≤ 0.1 | 0.25 to 1
COc1nc(Nc2ccc(C3CCN(C)CC3)c(C)c2)ncc1C(=O)Nc1c(Cl)ccc(O)c1Cl [Compound 133, N-(2,6-dichloro-3-hydroxyphenyl)-4-methoxy-2-((3-methyl-4-(1-methylpiperidin-4-yl)phenyl)amino)pyrimidine-5-carboxamide] | ≤ 0.01 | ≤ 0.1 | ≤ 0.25
COc1nc(Nc2ccc3c(c2)CN(C)CC3(C)C)ncc1C(=O)Nc1c(Cl)cccc1Cl [Compound 135, N-(2,6-dichlorophenyl)-4-methoxy-2-((2,4,4-trimethyl-1,2,3,4-tetrahydroisoquinolin-7-yl)amino)pyrimidine-5-carboxamide] | ≤ 0.01 | ≤ 0.1 | 0.25 to 1
Cc1cc(Nc2ncc(C(=O)Nc3c(Cl)cccc3Cl)c(OC3CC3)n2)ccc1C1CCN(C)CC1 [Compound 140, 4-cyclopropoxy-N-(2,6-dichlorophenyl)-2-((3-methyl-4-(1-methylpiperidin-4-yl)phenyl)amino)pyrimidine-5-carboxamide] | ≤ 0.01 | 0.1 to 0.5 | ≤ 0.25
CCOc1nc(Nc2cnn(CCCN(C)C)c2)ncc1C(=O)Nc1c(Cl)cccc1Br [Compound 200, N-(2-bromo-6-chlorophenyl)-2-{1-[3-(dimethylamino)propyl]-4-pyrazolylamino}-4-ethoxy-5-pyrimidinecarboxamide] |  | 0.1 to 0.5 | 0.25 to 1
COc1nc(Nc2ccc(N3CCC4(CCN(C)CC4)CC3)cc2)ncc1C(=O)Nc1c(Cl)cccc1Br [Compound 209, N-(2-bromo-6-chlorophenyl)-4-methoxy-2-{p-(9-methyl-3,9-diaza-3-spiro[5.5]undecyl)phenylamino}-5-pyrimidinecarboxamide] | ≤ 0.01 | 0.1 to 0.5 | 
COc1nc(Nc2ccc(O[C@@H]3CCNC3)c(C)c2)ncc1C(=O)Nc1c(Cl)cccc1Br [Compound 210] |  | 0.1 to 0.5 | 0.25 to 1
COc1nc(Nc2ccc(O[C@@H]3CCN(C)C3)c(C)c2)ncc1C(=O)Nc1c(Cl)cccc1Br [Compound 211] | ≤ 0.01 | 0.1 to 0.5 | 
COc1nc(Nc2cc(C)c(N3CCC(N(C)C)CC3)c(F)c2)ncc1C(=O)Nc1c(Cl)cccc1Br [Compound 214] | ≤ 0.01 | 0.1 to 0.5 | 
COc1nc(Nc2ccc(C3CCN(C)CC3)c(Cl)c2)ncc1C(=O)Nc1c(Cl)cccc1Br [Compound 215, N-(2-bromo-6-chlorophenyl)-2-[3-chloro-4-(1-methyl-4-piperidyl)phenylamino]-4-methoxy-5-pyrimidinecarboxamide] | ≤ 0.01 | 0.1 to 0.5 | 
COc1cc(Nc2ncc(C(=O)Nc3c(Cl)cccc3Br)c(OC)n2)ccc1C1CCN(C)CC1 [Compound 216, N-(2-bromo-6-chlorophenyl)-4-methoxy-2-((3-methoxy-4-(1-methylpiperidin-4-yl)phenyl)amino)pyrimidine-5-carboxamide] | ≤ 0.01 | 0.1 to 0.5 | 
CCOc1cc(Nc2ncc(C(=O)Nc3c(Cl)cccc3Br)c(OC)n2)ccc1C1CCN(C)CC1 [Compound 217, N-(2-bromo-6-chlorophenyl)-2-((3-ethoxy-4-(1-methylpiperidin-4-yl)phenyl)amino)-4-methoxypyrimidine-5-carboxamide] | ≤ 0.01 | 0.1 to 0.5 | 
CCCOc1cc(Nc2ncc(C(=O)Nc3c(Cl)cccc3Br)c(OC)n2)ccc1C1CCN(C)CC1 [Compound 218, N-(2-bromo-6-chlorophenyl)-4-methoxy-2-((4-(1-methylpiperidin-4-yl)-3-propoxyphenyl)amino)pyrimidine-5-carboxamide] | ≤ 0.01 | 0.1 to 0.5 | 
COc1nc(Nc2ccc(OC3CCNCC3)c(C)c2)ncc1C(=O)Nc1c(Cl)cccc1Br [Compound 219] | ≤ 0.01 | 0.1 to 0.5 | 
COc1nc(Nc2ccc(OC3CCN(C)CC3)c(C)c2)ncc1C(=O)Nc1c(Cl)cccc1Br [Compound 220, N-(2-bromo-6-chlorophenyl)-4-methoxy-2-((3-methyl-4-((1-methylpiperidin-4-yl)oxy)phenyl)amino)pyrimidine-5-carboxamide] | ≤ 0.01 | 0.1 to 0.5 | 
CCOc1nc(Nc2ccc(OC3CCNCC3)c(C)c2)ncc1C(=O)Nc1c(Cl)cccc1Br [Compound 221] | ≤ 0.01 | 0.1 to 0.5 | 
CCOc1nc(Nc2ccc(OC3CCN(C)CC3)c(C)c2)ncc1C(=O)Nc1c(Cl)cccc1Br [Compound 222] | ≤ 0.01 | 0.1 to 0.5 | 
COc1nc(Nc2cnn(C)c2)ncc1C(=O)Nc1c(Cl)ccc(O)c1Cl [Compound 223, N-(2,6-dichloro-3-hydroxyphenyl)-4-methoxy-2-((1-methyl-1H-pyrazol-4-yl)amino)pyrimidine-5-carboxamide] | ≤ 0.01 | > 1 | 
COc1nc(Nc2cnn(C)c2)ncc1C(=O)Nc1c(C)ccc(O)c1C [Compound 224, N-(3-hydroxy-2,6-xylyl)-4-methoxy-2-(1-methyl-4-pyrazolylamino)-5-pyrimidinecarboxamide] | ≤ 0.01 | > 1 | 
